Consider 1 compound from ChEMBL document CHEMBL4028880, “Structure-Activity Relationships of New Natural Product-Based Diaryloxazoles with Selective Activity against Androgen Receptor-Positive Breast Cancer Cells” (J Med Chem, 2017).

This series is described as follows: Aqueous solubility of the compound. In kind it is physicochemical. The note with it: buffer.

As to `CC(C)=CCOc1ccc(-c2cnc(-c3ccccc3)o2)cc1`, the solubility result was “Insoluble”.
